The nature of data set [1]: Antiproliferative activity against […] cells measured after 48 hrs incubation by MTT assay relative to control. It counts as functional, cell-based. Particulars: Mus musculus, Lung cancer cell line.
In data set [2] the test system is MC-38. As to the kind of experiment: Effect on acetylated SMC3 in mouse MC38 cells at 0.1 to 2 uM measured after 24 hrs incubation by Western blot analysis. It counts as functional, cell-based. Particulars: dose 0.1-2 µM. For orientation: Immunoblotting shows a protein as a band on a membrane.
Another data set concerns HeLa. As to the kind of experiment: Antiproliferative activity against human HeLa cells measured after 48 hrs incubation by MTT assay relative to control. The format is functional, cell-based.
In the next data set the test system is B16-F10. As to the kind of experiment: Antiproliferative activity against mouse B16-F10 cells at 1 uM measured after 48 hrs incubation by MTT assay relative to control. On the technique in general: Tetrazolium dyes change colour on reduction, which living cells bring about.
Another data set has as its system B16-F10 (Mus musculus). As to the kind of experiment: Antiproliferative activity against mouse B16-F10 cells measured after 48 hrs incubation by MTT assay relative to control. Particulars: B16-F10, 48 h.
In data set [3] the test system is MC-38. The data set can be described thus: Effect on acetylated alpha-tubulin in mouse MC38 cells at 0.1 to 2 uM measured after 24 hrs incubation by Western blot analysis. It counts as functional, cell-based. As to conditions: dose 0.1-2 µM.
The next data set deals with MCF7. As to the kind of experiment: Antiproliferative activity against human MCF7 cells measured after 48 hrs incubation by MTT assay relative to control. Particulars: MCF7, 48 h. The format is functional, cell-based.
A further data set has as its system HepG2. As to the kind of experiment: Antiproliferative activity against human HepG2 cells measured after 48 hrs incubation by MTT assay relative to control. It counts as functional, cell-based. As to conditions: HepG2, 48 h.
Data set [4] deals with MC-38. The data set can be described thus: Increase in acetylated H3 in mouse MC38 cells at 0.1 to 2 uM measured after 24 hrs incubation by Western blot analysis. Particulars: dose 0.1-2 µM. It counts as functional, cell-based.
Data set [5] has as its system MC-38. The data set can be described thus: Antiproliferative activity against mouse MC38 cells measured after 48 hrs incubation by MTT assay relative to control. It counts as functional, cell-based. As to conditions: MC-38, 48 h.
Data set [6] deals with MC-38. The data set can be described thus: In vivo antitumor activity against mouse MC38 cells allografted in C57BL/6 mouse assessed as tumor growth inhibition at 50 mg/kg, po treated 5 days after cell inoculation 19 th day relative to control. It counts as functional. Particulars: MC-38, 360 h, time 15 day, read-out: TGI.
Data set [7] deals with MC-38. The data set can be described thus: In vivo antitumor activity against mouse MC38 cells allografted in C57BL/6 mouse assessed as increase in Tunel-positive cells in tumor at 50 mg/kg, po treated 5 days after cell inoculation 19 th day by immunofluorescence analysis. It counts as functional, organism-based. As to conditions: time 15.0 day.
For data set [8], the system named is Mus musculus. The data set can be described thus: Immunomodulatory effect in C57BL/6 mouse allografted with mouse MC38 cells assessed as increase in tumor infiltrating lymphocytes by measuring increase in CD3+ CD4+ cells at 50 mg/kg, po treated 5 days after cell inoculation 19 th day by flow cytometry analysis. It counts as functional, organism-based. Particulars: time 15.0 day. (In general: A flow cytometer gives signals particle by particle.)

Data set [9] concerns Mus musculus. As to the kind of experiment: Immunomodulatory effect in C57BL/6 mouse allografted mouse MC38 cells assessed as increase in tumor infiltrating lymphocytes by measuring increase in CD4+ T helper cells in mouse spleen at 50 mg/kg, po treated 5 days after cell inoculation 19 th day by flow cytometry analysis (reference value: 10.8%). It counts as functional. As to conditions: time 15 day.

In data set [10] the test system is Mus musculus. The data set can be described thus: Immunomodulatory effect in C57BL/6 mouse allografted mouse MC38 cells assessed as increase in tumor infiltrating lymphocytes by measuring increase in CD4+ T helper cells in mouse blood at 50 mg/kg, po treated 5 days after cell inoculation 19 th day by flow cytometry analysis (reference value: 0.27%). The format is functional. As to conditions: time 15 day.

Data set [11] relates to Mus musculus. The data set can be described thus: Immunomodulatory effect in C57BL/6 mouse allografted mouse MC38 cells assessed as increase in tumor infiltrating lymphocytes by measuring increase in […] in mouse spleen at 50 mg/kg, po treated 5 days after cell inoculation 19 th day by flow cytometry analysis (reference value: 13.6%). It counts as functional. As to conditions: time 15 day.

In data set [12] the test system is Mus musculus. The data set can be described thus: Immunomodulatory effect in C57BL/6 mouse allografted mouse MC38 cells assessed as increase in tumor infiltrating lymphocytes by measuring increase in CD4+ T helper cells in mouse lymph nodes at 50 mg/kg, po treated 5 days after cell inoculation 19 th day by flow cytometry analysis (reference value: 15.5%). It counts as functional. As to conditions: time 15 day.

Data set [13] deals with Mus musculus. The data set can be described thus: Immunomodulatory effect in C57BL/6 mouse allografted mouse MC38 cells assessed as increase in tumor infiltrating lymphocytes by measuring increase in […] in mouse blood at 50 mg/kg, po treated 5 days after cell inoculation 19 th day by flow cytometry analysis (reference value: 0.35%). The format is functional. As to conditions: time 15 day.

Data set [14] deals with Mus musculus. As to the kind of experiment: Immunomodulatory effect in C57BL/6 mouse allografted mouse MC38 cells assessed as increase in tumor infiltrating lymphocytes by measuring increase in […] in mouse lymph nodes at 50 mg/kg, po treated 5 days after cell inoculation 19 th day by flow cytometry analysis (reference value: 20.3%). As to conditions: time 15 day. It counts as functional.

The subject of data set [15] is Mus musculus. The data set can be described thus: Induction of PD-L1 expression in tumor in C57BL/6 mouse allografted with mouse MC38 cells in presence of NP19 PD-L1 inhibitor at 50 mg/kg, po treated 5 days after cell inoculation 19 th day by immunofluorescence analysis. As to conditions: time 15.0 day. It counts as functional, organism-based.
Data set [16] concerns MC-38. As to the kind of experiment: In vivo antitumor activity against mouse MC38 cells allografted in C57BL/6 mouse assessed as decrease in […] positive cells in tumor at 50 mg/kg, po treated 5 days after cell inoculation 19 th day by immunofluorescence analysis. It counts as functional, organism-based. As to conditions: time 15.0 day.
Data set [17] relates to Mus musculus. The data set can be described thus: Immunomodulatory effect in C57BL/6 mouse allografted mouse MC38 cells assessed as increase in tumor infiltrating lymphocytes by measuring increase in CD8+ T […] cells in tumor at 50 mg/kg, po treated 5 days after cell inoculation 19 th day by flow cytometry analysis (reference value: 2.32%). It counts as functional. As to conditions: time 15 day.

Data set [18] relates to Mus musculus. As to the kind of experiment: Immunomodulatory effect in C57BL/6 mouse allografted mouse MC38 cells assessed as increase in tumor infiltrating lymphocytes by measuring increase in CD4+ T helper cells in tumor at 50 mg/kg, po treated 5 days after cell inoculation 19 th day by flow cytometry analysis (reference value: 2.57%). The format is functional. Particulars: time 15 day.

Data set [19] can be described thus: Oral bioavailability in C57BL/6 mouse allografted with mouse MC38 cells at 50 mg/kg. It counts as ADME, organism-based. As to conditions: in vivo.

For orientation: IC50 means the midpoint of a concentration-inhibition curve. One may read the bioavailability as the share of a dose that reaches the circulation, judged against a reference dose that is usually intravenous.

Molecules are shown by their SMILES. The source made the active and inactive calls. No cut-off for these calls is given here.

As for `Nc1ccccc1NC(=O)c1ccc(CNC(=O)OCc2cccnc2)cc1` [ENTINOSTAT], the IC50 was 2.87 µM in data set [1]; above 10 µM in the data set with HeLa; 9.36 µM in the data set on B16-F10 (Mus musculus); 8.99 µM in the data set on MCF7; 4.08 µM with HepG2; above 10 µM in the data set on MC-38 [5]. For the same compound, the outcome in the data set with MC-38 [2] and in the data set with MC-38 [3] was inactive. For the same compound, in the data set with B16-F10, the Activity was determined as 16.1%. The outcome with MC-38 [4] was Active.
In the case of `Cc1c(COc2cc(OCc3cccc(C#N)c3)c(CNC(C)(C)C(=O)O)cc2Cl)cccc1-c1ccccc1`, in the data set on MC-38 [6], the inhibition in vivo at 50 mg/kg is 8%. Further, the outcome with MC-38 [7] was Active. Besides, the outcome with Mus musculus [8], with Mus musculus [15] and with MC-38 [16] was inactive. Further, the Activity amounted to 10.2% with Mus musculus [9]; 0.38% in the data set with Mus musculus [10]; 12.1% in the data set with Mus musculus [11]; 11.2% in the data set on Mus musculus [12]; 0.42% in the data set with Mus musculus [13]; 18.9% in the data set on Mus musculus [14]. The values for the Activity in the data set with Mus musculus [17] and in the data set with Mus musculus [18] were 3.18% and 2.69%, respectively. The compound further yielded a bioavailability in data set [19] below 5%.

For the origin of these results see ChEMBL document CHEMBL6121046, “Discovery of Novel Hydrazide-Based HDAC3 Inhibitors as Epigenetic Immunomodulators for Cancer Immunotherapy” (J Med Chem, 2025).
